Results from patent US10487068B2, “Pyridazine derivatives as RORc modulators” (Genentech, Inc., priority 2015, dated 2019).

target: T1, RORc ligand binding domain (Homo sapiens, UniProt P51449); test: In Vitro RORc Ligand Binding Assay; conditions: RORc IC50, radioligand 25-[3H]hydroxycholesterol 6 nM; 0.6 ug/mL RORc receptor; 3 h at 25° C.
T1 sequence (P51449 269-508 limits assumed): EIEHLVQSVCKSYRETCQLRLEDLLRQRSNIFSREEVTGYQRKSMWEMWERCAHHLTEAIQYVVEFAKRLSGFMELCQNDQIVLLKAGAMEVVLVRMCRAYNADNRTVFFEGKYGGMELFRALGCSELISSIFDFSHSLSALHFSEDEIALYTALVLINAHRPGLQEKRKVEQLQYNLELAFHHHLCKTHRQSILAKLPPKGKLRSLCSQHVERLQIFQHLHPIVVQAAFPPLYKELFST

Going from CC1(C)[C@H]2CC[C@]1(c1ncccn1)c1nnc(-c3c(F)cccc3F)cc12 [Example 1, (5R,8R)-3-(2,6-difluorophenyl)-9,9-dimethyl-8-(pyrimidin-2-yl)-5,6,7,8-tetrahydro-5,8-methanocinnoline] to CC1(C)[C@H]2CC[C@]1(c1ncc(O)cn1)c1nnc(-c3c(F)cccc3F)cc12 [Example 6, 2-((5R,8R)-3-(2,6-difluorophenyl)-9,9-dimethyl-5,6,7,8-tetrahydro-5,8-methanocinnolin-8-yl)pyrimidin-5-ol], the IC50 rises from 15 nM to 115 nM (7.7-fold). The first is the more potent here.

First: CC1(C)[C@H]2CC[C@]1(c1cccnn1)c1nnc(-c3c(F)cccc3F)cc12 [Example 2, (5R,8S)-3-(2,6-difluorophenyl)-9,9-dimethyl-8-(pyridazin-3-yl)-5,6,7,8-tetrahydro-5,8-methanocinnoline]
Second: CC1(C)[C@H]2CC[C@]1(c1ccnc(N)n1)c1nnc(-c3c(F)cccc3F)cc12 [Example 23]
The IC50 of the first is 1.6-fold lower: 13.4 nM for the first, 21.9 nM for the second. The first is the more potent here.

Compared with CC1(C)[C@H]2CC[C@]1(c1c[nH]c(=O)cn1)c1nnc(-c3c(F)cccc3F)cc12 [Example 5, 5-((5R,8S)-3-(2,6-difluorophenyl)-9,9-dimethyl-5,6,7,8-tetrahydro-5,8-methanocinnolin-8-yl)pyrazin-2(1H)-one], CC1(C)[C@H]2CC[C@]1(c1nccc(=O)[nH]1)c1nnc(-c3c(F)cccc3F)cc12 [Example 20, 2-((5R,8R)-3-(2,6-difluorophenyl)-9,9-dimethyl-5,6,7,8-tetrahydro-5,8-methanocinnolin-8-yl)pyrimidin-4(3H)-one] is 3.6-fold higher in IC50: 38.4 nM for the first, 140 nM for the second.

Compared with CC1(C)[C@H]2CC[C@]1(c1ccnc(=O)[nH]1)c1nnc(-c3c(F)cccc3F)cc12 [Example 7, 6-((5R,8S)-3-(2,6-difluorophenyl)-9,9-dimethyl-5,6,7,8-tetrahydro-5,8-methanocinnolin-8-yl)pyrimidin-2(1H)-one], CC1(C)[C@H]2CC[C@]1(c1cc(=O)cc[nH]1)c1nnc(-c3c(F)cccc3F)cc12 [Example 24, 2-((5R,8S)-3-(2,6-difluorophenyl)-9,9-dimethyl-5,6,7,8-tetrahydro-5,8-methanocinnolin-8-yl)pyridin-4(1H)-one] is 30-fold higher in IC50: 64 nM for the first, 1940 nM for the second.

Compared with Cn1c([C@@]23CC[C@@H](c4cc(-c5c(F)cccc5F)nnc42)C3(C)C)ccc(C#N)c1=O [Example 8, 6-((5R,8S)-3-(2,6-difluorophenyl)-9,9-dimethyl-5,6,7,8-tetrahydro-5,8-methanocinnolin-8-yl)-1-methyl-2-oxo-1,2-dihydropyridine-3-carbonitrile], CC1(C)[C@H]2CC[C@]1(c1cccc(C#N)n1)c1nnc(-c3c(F)cccc3F)cc12 [Example 16, 6-((5R,8S)-3-(2,6-difluorophenyl)-9,9-dimethyl-5,6,7,8-tetrahydro-5,8-methanocinnolin-8-yl)picolinonitrile] is 14-fold lower in IC50: 108 nM for the first, 7.6 nM for the second.

Compared with COC(=O)c1cncc([C@@]23CC[C@@H](c4cc(-c5c(F)cccc5F)nnc42)C3(C)C)n1 [Example 9, methyl 6-((5R,8S)-3-(2,6-difluorophenyl)-9,9-dimethyl-5,6,7,8-tetrahydro-5,8-methanocinnolin-8-yl)pyrazine-2-carboxylate], CNC(=O)c1cncc([C@@]23CC[C@@H](c4cc(-c5c(F)cccc5F)nnc42)C3(C)C)n1 [Example 27, 6-((5R,8S)-3-(2,6-difluorophenyl)-9,9-dimethyl-5,6,7,8-tetrahydro-5,8-methanocinnolin-8-yl)-N-methylpyrazine-2-carboxamide] is 3.4-fold higher in IC50: 7.7 nM for the first, 26.4 nM for the second. The first is the more potent here.

Going from COC(=O)c1cnc([C@@]23CC[C@@H](c4cc(-c5c(F)cccc5F)nnc42)C3(C)C)cn1 [Example 10, methyl 5-((5R,8S)-3-(2,6-difluorophenyl)-9,9-dimethyl-5,6,7,8-tetrahydro-5,8-methanocinnolin-8-yl)pyrazine-2-carboxylate] to CC1(C)[C@H]2CC[C@]1(c1cnc(C(N)=O)cn1)c1nnc(-c3c(F)cccc3F)cc12 [Example 13, 5-((5R,8S)-3-(2,6-difluorophenyl)-9,9-dimethyl-5,6,7,8-tetrahydro-5,8-methanocinnolin-8-yl)pyrazine-2-carboxamide], the IC50 rises from 389 nM to 4270 nM (11-fold). The first is the more potent here.

Compared with CC1(C)[C@H]2CC[C@]1(c1cncc(C(=O)O)n1)c1nnc(-c3c(F)cccc3F)cc12 [Example 11, 6-((5R,8S)-3-(2,6-difluorophenyl)-9,9-dimethyl-5,6,7,8-tetrahydro-5,8-methanocinnolin-8-yl)pyrazine-2-carboxylic acid], CC1(C)[C@H]2CC[C@]1(c1cncc(C(N)=O)n1)c1nnc(-c3c(F)cccc3F)cc12 [Example 12, 6-((5R,8S)-3-(2,6-difluorophenyl)-9,9-dimethyl-5,6,7,8-tetrahydro-5,8-methanocinnolin-8-yl)pyrazine-2-carboxamide] is 2.1-fold lower in IC50: 38.9 nM for the first, 18.3 nM for the second.

First: CC1(C)[C@H]2CC[C@]1(c1cncc(C#N)n1)c1nnc(-c3c(F)cccc3F)cc12 [Example 14, 6-((5R,8S)-3-(2,6-difluorophenyl)-9,9-dimethyl-5,6,7,8-tetrahydro-5,8-methanocinnolin-8-yl)pyrazine-2-carbonitrile]
Second: CC1(C)[C@H]2CC[C@]1(c1cnc(C#N)cn1)c1nnc(-c3c(F)cccc3F)cc12 [Example 15, 5-((5R,8S)-3-(2,6-difluorophenyl)-9,9-dimethyl-5,6,7,8-tetrahydro-5,8-methanocinnolin-8-yl)pyrazine-2-carbonitrile]
The IC50 of the first is 230-fold lower: 5.7 nM for the first, 1310 nM for the second.

Compared with CNC(=O)c1cccc([C@@]23CC[C@@H](c4cc(-c5c(F)cccc5F)nnc42)C3(C)C)n1 [Example 17, 6-((5R,8S)-3-(2,6-difluorophenyl)-9,9-dimethyl-5,6,7,8-tetrahydro-5,8-methanocinnolin-8-yl)-N-methylpicolinamide], CN(C)C(=O)c1cccc([C@@]23CC[C@@H](c4cc(-c5c(F)cccc5F)nnc42)C3(C)C)n1 [Example 18, 6-((5R,8S)-3-(2,6-difluorophenyl)-9,9-dimethyl-5,6,7,8-tetrahydro-5,8-methanocinnolin-8-yl)-N,N-dimethylpicolinamide] is 1.7-fold higher in IC50: 20.5 nM for the first, 35.7 nM for the second.

Cc1cncnc1[C@@]12CC[C@@H](c3cc(-c4c(F)cccc4F)nnc31)C2(C)C [Example 19] and COc1ccnc([C@@]23CC[C@@H](c4cc(-c5c(F)cccc5F)nnc42)C3(C)C)n1 [Example 21, (5R,8R)-3-(2,6-difluorophenyl)-8-(4-methoxypyrimidin-2-yl)-9,9-dimethyl-5,6,7,8-tetrahydro-5,8-methanocinnoline] are within 1.5-fold of each other in IC50: 20.3 nM for the first, 23.8 nM for the second.

Compared with CC1(C)[C@H]2CC[C@]1(c1cc(=O)cco1)c1nnc(-c3c(F)cccc3F)cc12 [Example 22, 2-((5R,8R)-3-(2,6-difluorophenyl)-9,9-dimethyl-5,6,7,8-tetrahydro-5,8-methanocinnolin-8-yl)-4H-pyran-4-one], CC1(C)[C@H]2CC[C@]1(c1cc(O)cc(=O)o1)c1nnc(-c3c(F)cccc3F)cc12 [Example 25, 6-((5R,8R)-3-(2,6-difluorophenyl)-9,9-dimethyl-5,6,7,8-tetrahydro-5,8-methanocinnolin-8-yl)-4-hydroxy-2H-pyran-2-one] is 74-fold higher in IC50: 33.5 nM for the first, 2490 nM for the second. The first is the more potent here.

With COc1ccnc([C@@]23CC[C@@H](c4cc(-c5c(F)cccc5F)nnc42)C3(C)C)c1 [Example 26] the IC50 was 57.2 nM.
